From patent US20150225369A1, “DDR2 INHIBITORS FOR THE TREATMENT OF OSTEOARTHRITIS” (Merck Patent GmbH, priority 2012, published 2015)

Each compound was assayed against T1, His-tagged human recombinant DDR-2 kinase domain (His-TEV-DDR2 467-855 aa) (Homo sapiens, UniProt Q16832) (assay: Autophosphorylation assay for biochemical activity testing of DDR2 (HTRF)). Conditions: 4 nM DDR2 kinase domain, 150 μM ATP, 150 min at 22° C.
T1 construct: His-TEV-DDR2 467-855 aa
T1 sequence (Q16832 467-855): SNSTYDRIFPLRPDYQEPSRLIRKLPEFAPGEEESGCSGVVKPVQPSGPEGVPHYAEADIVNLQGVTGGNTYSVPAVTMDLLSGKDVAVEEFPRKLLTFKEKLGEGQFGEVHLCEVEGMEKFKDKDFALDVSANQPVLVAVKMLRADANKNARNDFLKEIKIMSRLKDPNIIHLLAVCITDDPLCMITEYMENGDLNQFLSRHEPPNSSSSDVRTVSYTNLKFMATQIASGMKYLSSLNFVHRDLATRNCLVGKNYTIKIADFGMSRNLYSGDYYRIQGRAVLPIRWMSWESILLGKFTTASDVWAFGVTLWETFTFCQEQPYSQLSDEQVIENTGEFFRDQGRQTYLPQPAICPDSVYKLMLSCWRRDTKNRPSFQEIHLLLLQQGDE
Method: The autophosphorylation assay was run in two steps: the enzymatic reaction in which His-tagged DDR2 with ATP as co-substrate phosphorylates itself and the detection reaction where a time resolved FRET between XL665® labelled anti-6His antibody bound to the His-tag of the enzyme and cryptate labelled anti-phospho-Tyrosine-antibody (PT66) bound the phosphorylated Tyrosine residue of DDR2 was analysed. The autophosphorylation activity was detectable directly via the increase in HTRF signal.
The autophosphorylation assay was performed as 1536 well or 384 well HTRF® (Cisbio, Codolet, France) assay format in Greiner low volume medium binding 384-well microtiter plates and was used for high throughput screen. […] The ratio of the emission signals was determined. The full value used was the inhibitor-free reaction.

| IC50 [nM] | Structure (SMILES) |
| --- | --- |
| 1500 | CNC(=O)c1cc(Oc2ccc(CNC(=O)Nc3cc(Cl)nc(Cl)c3)cc2)ccn1 [compound 2] |
| 3800 | CNC(=O)c1cc(Oc2ccc(CNC(=O)Nc3ccccn3)cc2)ccn1 [compound 3] |
| 33 | CNC(=O)c1cc(Oc2ccc(COC(=O)Nc3cc(C(F)(F)F)ccn3)cc2)ccn1 [compound 3] |
| 1600 | CNC(=O)c1cc(Oc2ccc(CNC(=O)Nc3cccnc3OC)cc2)ccn1 [compound 4] |
| 41 | CNC(=O)c1cc(Oc2ccc(COC(=O)Nc3cc(C(F)(F)F)ccn3)cc2C)ccn1 [compound 4] |
| 15000 | CNC(=O)c1cc(Oc2ccc(CNC(=O)Nc3cccnc3)cc2)ccn1 [compound 5] |
| 610 | CNC(=O)c1cc(Oc2ccc(COC(=O)Nc3cc(C(F)(F)F)cnc3O)cc2)ccn1 [compound 5] |
| 1000 | CNC(=O)c1cc(Oc2ccc(CNC(=O)Nc3ccnc(Cl)c3)cc2)ccn1 [compound 6] |
| 6600 | CNC(=O)c1cc(Oc2ccc(CNC(=O)Nc3ncc(C(F)(F)F)cc3Cl)cc2)ccn1 [compound 7] |
| 51 | Cn1cc(C(F)(F)F)cc(NC(=O)NCc2ccc(Oc3ccnc4ccccc34)cc2)c1=O [compound 9] |
| 290 | CNC(=O)c1cc(Oc2ccc(CNC(=O)Nc3cnc4ccccc4c3)cc2)ccn1 [compound 10] |
| 91 | CCn1cc(C(F)(F)F)cc(NC(=O)NCc2ccc(Oc3ccnc(C(=O)NC)c3)cc2)c1=O [compound 11] |
| 190 | CNC(=O)c1cc(Oc2ccc(CNC(=O)Nc3cc4ccccc4nc3OC)cc2)ccn1 [compound 11] |
| 260 | CNC(=O)c1cc(Oc2ccc(CNC(=O)Nc3cc(C(F)(F)F)cn(Cc4ccccc4)c3=O)cc2)ccn1 [compound 12] |
| 2000 | CNC(=O)c1cc(Oc2ccc(CNC(=O)Nc3ccc(C)cn3)cc2)ccn1 [compound 12] |
| 780 | CNC(=O)c1cc(Oc2ccc(CNC(=O)Nc3ccc(C)cn3)cc2C)ccn1 [compound 13] |
| 1600 | Cn1cc(C(F)(F)F)cc(NC(=O)NCc2ccc(Oc3ccncc3C(F)(F)F)cc2)c1=O [compound 13] |
| 570 | CNC(=O)c1cc(Oc2ccc(CNC(=O)Nc3cc(C)ccn3)cc2)ccn1 [compound 14] |
| 400 | CNC(=O)c1cc(Oc2ccc(CNC(=O)Nc3cc(C)ccn3)cc2C)ccn1 [compound 15] |
| 11000 | CNC(=O)c1cc(Oc2ccc(CNC(=O)Nc3cccnc3Cl)cc2)ccn1 [compound 16] |
| 5600 | CNC(=O)c1cc(Oc2ccc(CNC(=O)Nc3ccc(OC)nc3)cc2)ccn1 [compound 17] |
| 710 | CNC(=O)c1cc(Oc2ccc(CNC(=O)Nc3cc(C)cnc3Cl)cc2)ccn1 [compound 22] |
| 230 | COc1ncc(C)cc1NC(=O)NCc1ccc(Oc2ccnc(C)c2)c(C)c1 [compound 31] |
| 7100 | Cc1cc(Oc2ccc(CNC(=O)Nc3cnc4ccccc4c3)cc2C)ccn1 [compound 32] |
| 1700 | COc1nc2ccccc2cc1NC(=O)NCc1ccc(Oc2ccnc(C)c2)c(C)c1 [compound 33] |
| 11000 | Cc1cc(Oc2ccc(CNC(=O)Nc3cc4ccccc4cn3)cc2C)ccn1 [compound 34] |

Same assay, conditions: Table 6; 4 nM DDR2 kinase domain, 150 μM ATP

| IC50 [nM] | Structure (SMILES) |
| --- | --- |
| 21000 | CNC(=O)c1cc(Oc2ccc(C(O)CC(=O)Nc3ccc(Cl)c(C(F)(F)F)c3)cc2C)ccn1 (centres unmarked) [compound 2] |
| 1600 | CNC(=O)c1cc(Oc2ccc(CCC(=O)Nc3ccc(Cl)c(C(F)(F)F)c3)cc2C)ccn1 [compound 3] |
| 570 | CNC(=O)c1cc(Oc2ccc(OCC(=O)Nc3cc(C(F)(F)F)cn(C)c3=O)cc2)ccn1 [compound 4] |

Same assay, conditions: biochemical DDR2 autophosphorylation

| Structure (SMILES) | IC50 [nM] |
| --- | --- |
| CNC(=O)c1cc(Oc2ccc(CNC(=O)Nc3ccccc3OC)cc2)ccn1 [compound 14] | 1900 |
| CNC(=O)c1cc(Oc2ccc(CNC(=O)Nc3cc(OC)ccc3OC)cc2)ccn1 [compound 20] | 98 |

Results, then the compound that gave them:

| IC50 [nM] | Structure (SMILES) |
| --- | --- |
| 1400 | O=C(NCc1ccc(Oc2ccncc2)cc1)Nc1cc(Cl)c(Cl)cc1Cl [compound 2] |
| 36 | O=C(NCc1ccc(Oc2ccncc2)cc1)Nc1cccc(C(F)(F)F)c1 [compound 4] |
| 1400 | O=C(NCc1ccc(Oc2ccncc2)cc1)Nc1ccc(Cl)cc1Cl [compound 5] |
| 1000 | Cc1cccc(NC(=O)NCc2ccc(Oc3ccncc3)cc2)c1 [compound 6] |
| 10000 | CC(=O)c1cccc(NC(=O)NCc2ccc(Oc3ccncc3)cc2)c1 [compound 7] |
| 3800 | O=C(NCc1ccc(Oc2ccncc2)cc1)Nc1ccc(Br)cc1 [compound 9] |
| 270 | O=C(NCc1ccc(Oc2ccncc2)cc1)Nc1cc(Cl)ccc1Cl [compound 10] |
| 3400 | O=C(NCc1ccc(Oc2ccncc2)cc1)Nc1ccc(F)cc1 [compound 11] |
| ≥ 100000 | O=C(NCc1ccc(Oc2ccncc2)cc1)Nc1cccc(Cl)c1Cl [compound 13] |
| 440 | COc1ccc(OC)c(NC(=O)NCc2ccc(Oc3ccncc3)cc2)c1 [compound 15] |
| 5900 | O=C(NCc1ccc(Oc2ccncc2)cc1)Nc1ccc(Cl)cc1 [compound 16] |
| 13000 | COc1ccc(NC(=O)NCc2ccc(Oc3ccncc3)cc2)cc1 [compound 17] |
| 4100 | Cc1ccc(NC(=O)NCc2ccc(Oc3ccncc3)cc2)cc1 [compound 18] |
| 2000 | O=C(NCc1ccc(Oc2ccncc2)cc1)Nc1ccc(C(F)(F)F)cc1 [compound 21] |
| 560 | O=C(NCc1ccc(Oc2ccncc2)cc1)Nc1cc(C(F)(F)F)cc(C(F)(F)F)c1 [compound 22] |
| ≥ 100000 | Cc1cccc(NC(=O)NCc2ccc(Oc3ccncc3)cc2)c1C [compound 24] |
| 13000 | Cc1ccc(C)c(NC(=O)NCc2ccc(Oc3ccncc3)cc2)c1 [compound 25] |
| 20000 | O=C(NCc1ccc(Oc2ccncc2)cc1)Nc1ccccc1C(F)(F)F [compound 26] |
| 740 | Cc1ccc(NC(=O)NCc2ccc(Oc3ccncc3)cc2)cc1Cl [compound 27] |

| IC50 [nM] | Structure (SMILES) |
| --- | --- |
| ≥ 100000 | CCc1ccccc1NC(=O)NCc1ccc(Oc2ccncc2)cc1 [compound 28] |
| ≥ 100000 | Cc1ccccc1NC(=O)NCc1ccc(Oc2ccncc2)cc1 [compound 29] |
| 28000 | Cc1ccc(NC(=O)NCc2ccc(Oc3ccncc3)cc2)c(C)c1 [compound 30] |
| 87 | COc1ccc(Cl)cc1NC(=O)NCc1ccc(Oc2ccncc2)cc1 [compound 32] |
| ≥ 100000 | O=C(NCc1ccc(Oc2ccncc2)cc1)Nc1ccccc1Cl [compound 33] |
| 5500 | CSc1cccc(NC(=O)NCc2ccc(Oc3ccncc3)cc2)c1 [compound 34] |
| 9500 | O=C(NCc1ccc(Oc2ccncc2)cc1)Nc1ccc(Br)cc1Cl [compound 35, 1-(4-Bromo-2-chloro-phenyl)-3-[4-(pyridin-4-yloxy)-benzyl]-urea] |
| 1700 | COc1ccccc1NC(=O)NCc1ccc(Oc2ccncc2)cc1 [compound 36, 1-(2-Methoxy-phenyl)-3-[4-(pyridin-4-yloxy)-benzyl]-urea] |
| 2800 | O=C(NCc1ccc(Oc2ccncc2)cc1)Nc1ccc(C(F)(F)F)cc1Cl [compound 37, 1-(2-Chloro-4-trifluoromethyl-phenyl)-3-[4-(pyridin-4-yloxy)-benzyl]-urea] |
| 2100 | O=C(NCc1ccc(Oc2ccncc2)cc1)Nc1ccc(Cl)c(Cl)c1 [compound 38, 1-(3,4-Dichloro-phenyl)-3-[4-(pyridin-4-yloxy)-benzyl]-urea] |
| 9900 | O=C(NCc1ccc(Oc2ccncc2)cc1)Nc1ccc(Cl)cc1C(F)(F)F [compound 40, 1-(4-Chloro-2-trifluoromethyl-phenyl)-3-[4-(pyridin-4-yloxy)-benzyl]-urea] |
| ≥ 100000 | CCOc1ccc(NC(=O)NCc2ccc(Oc3ccncc3)cc2)cc1 [compound 41, 1-(4-Ethoxy-phenyl)-3-[4-(pyridin-4-yloxy)-benzyl]-urea] |
| 42 | O=C(NCc1ccc(Oc2ccncc2)cc1)Nc1cc(C(F)(F)F)ccc1Cl [compound 43, 1-(2-Chloro-5-trifluoromethyl-phenyl)-3-[4-(pyridin-4-yloxy)-benzyl]-urea] |
| 1800 | Cc1cc(C)cc(NC(=O)NCc2ccc(Oc3ccncc3)cc2)c1 [compound 44, 1-(3,5-Dimethyl-phenyl)-3-[4-(pyridin-4-yloxy)-benzyl]-urea] |
| 4000 | COc1cccc(NC(=O)NCc2ccc(Oc3ccncc3)cc2)c1 [compound 45, 1-(3-Methoxy-phenyl)-3-[4-(pyridin-4-yloxy)-benzyl]-urea] |
| 100 | O=C(NCc1ccc(Oc2ccncc2)cc1)Nc1ccc(F)c(C(F)(F)F)c1 [compound 46, 1-(4-Fluoro-3-trifluoromethyl-phenyl)-3-[4-(pyridin-4-yloxy)-benzyl]-urea] |
| 8800 | CC(=O)c1ccc(NC(=O)NCc2ccc(Oc3ccncc3)cc2)cc1 [compound 47, 1-(4-Acetyl-phenyl)-3-[4-(pyridin-4-yloxy)-benzyl]-urea] |
| ≥ 100000 | O=C(NCc1ccc(Oc2ccncc2)cc1)Nc1ccccc1Br [compound 48, 1-(2-Bromo-phenyl)-3-[4-(pyridin-4-yloxy)-benzyl]-urea] |
